Test results: article PMC5078989, “Targeted inhibition of the COP9 signalosome for treatment of cancer” (Nature Communications, 2016)

Test system: panel of cancer cell lines
Test: Cell viability (CellTiter-Glo) dose-response across cancer cell line panel;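 note: after 72 h compound incubation with CellTiter-Glo ATP readout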
Type: cell-based, human
Conditions: Homo sapiens
From the text: Next, we explored the effect of CSN5 inhibition on the viability of cancer cells. To obtain a comprehensive picture, we generated dose–response curves with a CSN5 inhibitor across more than 500 cancer cell lines in a previously described standardized setting[47] (Supplementary Data 1).
A standardized CellTiter-Glo Assay (Promega #G7570) based on the quantification of ATP was applied according to the manufacturer's protocol to measure the amount of viable cells in culture. In brief, cells were seeded into 384-well plates at optimal density for each cell line. After 4 h, compounds were added at different concentrations in growth medium and incubated for another 72 h in a humidifying chamber at 37 °C and 5% CO2. […] EC50 values were calculated from the plot of percentage of inhibition versus inhibitor concentration using the nonlinear regression analysis software Origin 7.5SR6 (OriginLab Corp.).

EC50 (HCC1500, HCC1500): 5.16 nM | EC50 (HCC1569, HCC1569): 6.77 nM | EC50 (HCC1806, HCC1806): 24.8 nM | EC50 (HCC1937, HCC1937): 7.46 nM | EC50 (HCC1954, HCC1954): 3.14 nM | EC50 (HCC2218, HCC2218): 9.79 nM | EC50 (HCT-15, HCT-15): 26.6 nM | EC50 (HCT-116, HCT 116): 6.91 nM | EC50 (HEC-1-A, cell line HEC-1-A): 15.5 nM | EC50 (HEC-6, HEC-6): 21.4 nM | EC50 (HEC-50B): 25.2 nM | EC50 (HEC-59): 7.32 nM | EC50 (HEC-151): 21.6 nM | EC50 (HEC-251, HEC-251): 9.46 nM | EC50 (HEC-265): 17 nM | EC50 (HEL 92.1.7, HEL 92.1.7): 5.21 nM | EC50 (HEY A8, Hey-A8): 56.7 nM | EC50 (HGC-27, HGC-27): 16.2 nM | EC50 (HLC-1): 11.1 nM | EC50 (HLF): 13.8 nM | EC50 (HMC-1-8): 7.01 nM | EC50 (HMCB): 9.61 nM | EC50 (HPBALL, HPB-ALL): 3.18 nM | EC50 (HRT-18, HRT-18): 53.1 nM | EC50 (HT): 1.72 nM | EC50 (HT55, HT55): 31 nM | EC50 (HT115, HT115): 8.52 nM | EC50 (HT-29, HT-29): 18.4 nM | EC50 (HT-144, HT-144): 8.93 nM | EC50 (HT-1080, HT-1080): 20.1 nM | EC50 (HT-1376, HT-1376): 18.1 nM | EC50 (HTK-): 17.1 nM | EC50 (Hs 294T): 11.4 nM | EC50 (Hs 571.T): 10.2 nM | EC50 (Hs 611.T): 6.13 nM | EC50 (Hs 695T): 3.73 nM | EC50 (Hs 729): 7.87 nM | EC50 (Hs766T, Hs 766T): 19.8 nM | EC50 (Hs 936.T): 8.25 nM | EC50 (Hs 939.T): 4.42 nM | EC50 (Hs 940.T): 3.97 nM | EC50 (Hs 944.T): 12.7 nM | EC50 (Hs-578T, Hs 578T): 10.3 nM | EC50 (HuH-1, cell line huH-1): 44.7 nM | EC50 (HuP-T3, HUP-T3): 7.39 nM | EC50 (IGR-1, IGR-1): 8.66 nM | EC50 (IGR-37, IGR-37): 8.3 nM | EC50 (IGR-39, IGR-39): 7.6 nM | EC50 (IGROV-1, IGROV1): 26.8 nM | EC50 (IMR-32, IMR-32): 5.94 nM | EC50 (IPC-298, cell line IPC-298): 9.44 nM | EC50 (Ishikawa, Ishikawa (Heraklio) 02 ER-): 16.1 nM | EC50 (J82, J82): 11.9 nM | EC50 (JHH7, cell line JHH-7): 10.2 nM | EC50 (JHH-2, cell line JHH-2): 18.3 nM | EC50 (JHOM-1): 4.86 nM | EC50 (JHUEM-2): 5.6 nM | EC50 (JIMT-1, JIMT-1): 13.9 nM | EC50 (JJN-3, JJN-3): 2.61 nM | EC50 (JVM-2, JVM-2): 4.69 nM | EC50 (JVM-3, JVM-3): 8.69 nM | EC50 (JeKo-1, JeKo-1): 7.3 nM | EC50 (Jurkat): 9.14 nM | EC50 (K029AX): 4.76 nM | EC50 (K562, K-562): 16.3 nM | EC50 (KARPAS-299, KARPAS-299): 5.88 nM | EC50 (KARPAS-422, KARPAS-422): 6.19 nM | EC50 (KASUMI-2): 3.8 nM | EC50 (KATO III, cell line KATO III): 7.88 nM | EC50 (KCL-22, KCL-22): 4.19 nM | EC50 (KHM-1B): 4.04 nM | EC50 (KLE): 12.8 nM | EC50 (KM12, KM12): 23.9 nM | EC50 (KMM-1, KMM-1): 4.45 nM | EC50 (KMRC-1, KMRC-1): 6.75 nM | EC50 (KMRC-20): 10.1 nM | EC50 (KMS-11, KMS-11): 3.19 nM | EC50 (KMS-12-BM): 5.34 nM | EC50 (KMS-26, KMS-26): 11.5 nM | EC50 (KMS-28BM): 3.85 nM | EC50 (KMS-34, KMS-34): 12.2 nM | EC50 (KNS-62, KNS-62): 19.3 nM | EC50 (KO52): 2.37 nM | EC50 (KP-1N): 7.49 nM | EC50 (KP-1NL): 9.41 nM | EC50 (KP-N-SI9s): 8.48 nM | EC50 (KP-N-YN): 20.2 nM | EC50 (KPL-1, KPL-1): 20.5 nM | EC50 (KU812, KU812): 4 nM | EC50 (KYM-1): 4.88 nM | EC50 (KYO1, KYO-1): 6.59 nM | EC50 (KYSE-30, KYSE-30): 7.82 nM | EC50 (KYSE-70, cell line KYSE-70): 18 nM | EC50 (KYSE-150, cell line KYSE-150): 6.63 nM | EC50 (KYSE-270, cell line KYSE-270): 10.3 nM | EC50 (KYSE-410, cell line KYSE-410): 21.2 nM | EC50 (KYSE-450, KYSE-450): 16 nM | EC50 (KYSE-510, cell line KYSE-510): 11.9 nM | EC50 (KYSE-520, cell line KYSE-520): 13.4 nM | EC50 (Karpas-620, KARPAS-620): 6.17 nM | EC50 (Kelly): 3.53 nM | EC50 (Ki-JK): 4.34 nM | EC50 (L3.3): 29.6 nM | EC50 (L-363, L-363): 5.51 nM | EC50 (LAMA-84, LAMA-84): 5.36 nM | EC50 (LCLC-97TM1, LCLC-97TM1): 8.39 nM | EC50 (LCLC-103H): 10.1 nM | EC50 (LK-2, LK-2): 11.7 nM | EC50 (LMSU): 10.3 nM | EC50 (LN-18, LN-18): 15.3 nM | EC50 (LN-229, LN-229): 8.7 nM | EC50 (LOX IMVI): 26.4 nM | EC50 (LP-1, LP-1): 5.99 nM | EC50 (LS180, LS 180): 16.4 nM | EC50 (LS-411N, LS411N): 17.3 nM | EC50 (LXF-289, LXF-289): 14.3 nM | EC50 (Li-7, Li-7): 15.6 nM | EC50 (LoVo): 13.4 nM | EC50 (Loucy): 2.54 nM | EC50 (Lu-65, LU65): 7.61 nM | EC50 (Lu-99, LU99): 15.4 nM | EC50 (MB 157): 6.39 nM | EC50 (MC116, cell line MC116): 9.81 nM | EC50 (MCAS): 8.1 nM | EC50 (MCF7, MCF7): 38 nM | EC50 (MDA-MB-175-VII): 10.3 nM | EC50 (MDA-MB-231, MDA-MB-231): 10.9 nM | EC50 (MDA-MB-415, MDA-MB-415): 16.1 nM | EC50 (MDA-MB-436, MDA-MB-436): 12.6 nM | EC50 (MDA-MB-453, MDA-MB-453): 6.73 nM | EC50 (MDA-MB-468, MDA-MB-468): 5.97 nM | EC50 (MDST8, MDST8): 8.17 nM | EC50 (MEC1, MEC-1): 4.98 nM | EC50 (MEG-01, MEG-01): 8.7 nM | EC50 (MEL-JUSO): 10.6 nM | EC50 (MFE-296, cell line MFE-296): 19.8 nM | EC50 (MG-63, MG-63): 5.92 nM | EC50 (MHH-NB-11): 10.4 nM | EC50 (MIA PaCa-2, cell line MIA PaCa-2): 15.1 nM | EC50 (MINO): 6.8 nM | EC50 (MKN-1, cell line MKN1): 6.81 nM | EC50 (MKN-7, cell line MKN7): 7.08 nM | EC50 (MKN-45, cell line MKN-45): 8.03 nM | EC50 (MKN-74, cell line MKN74): 8.77 nM | EC50 (MM1.S, cell line MM1-S): 2 nM | EC50 (MOLM16, MOLM-16): 1.95 nM | EC50 (MOLM-13, MOLM-13): 5.21 nM | EC50 (MOLP-8, MOLP-8): 7.29 nM | EC50 (MOLT-16, MOLT-16): 1.73 nM | EC50 (MONO-MAC-6, MONO-MAC-6): 10.9 nM | EC50 (MOR/CPR): 39.6 nM | EC50 (MSTO-211H, cell line MSTO-211H): 22 nM | EC50 (MV4-11, cell line MV-4-11): 5.18 nM | EC50 (Malme-3M): 3.27 nM | EC50 (Maver1, cell line MAVER-1): 6.73 nM | EC50 (MeWo, cell line MeWo): 8.08 nM | EC50 (Mel202, cell line Mel202): 10.1 nM | EC50 (Mono-Mac-1, MONO-MAC-1): 7.98 nM
SMILES: CC(C)C[C@H](NC(=O)[C@H](Cc1ccccc1)NC(=O)c1cnccn1)B(O)O [Bortezomib]
